The record followed here is US6528528B2 (Warner-Lambert Company, priority 1997, dated 2003).

The target of series [1] is T1, rabbit reticulocyte 15-LO (Oryctolagus cuniculus, UniProt P12530).
T1 construct: Fifteen-lipoxygenase was obtained from phenylhydrazine-treated rabbits and purified per the method of Rapoport; from tissue; host or cells: reticulocytes of phenylhydrazine-treated rabbits
T1 sequence (P12530 1-663): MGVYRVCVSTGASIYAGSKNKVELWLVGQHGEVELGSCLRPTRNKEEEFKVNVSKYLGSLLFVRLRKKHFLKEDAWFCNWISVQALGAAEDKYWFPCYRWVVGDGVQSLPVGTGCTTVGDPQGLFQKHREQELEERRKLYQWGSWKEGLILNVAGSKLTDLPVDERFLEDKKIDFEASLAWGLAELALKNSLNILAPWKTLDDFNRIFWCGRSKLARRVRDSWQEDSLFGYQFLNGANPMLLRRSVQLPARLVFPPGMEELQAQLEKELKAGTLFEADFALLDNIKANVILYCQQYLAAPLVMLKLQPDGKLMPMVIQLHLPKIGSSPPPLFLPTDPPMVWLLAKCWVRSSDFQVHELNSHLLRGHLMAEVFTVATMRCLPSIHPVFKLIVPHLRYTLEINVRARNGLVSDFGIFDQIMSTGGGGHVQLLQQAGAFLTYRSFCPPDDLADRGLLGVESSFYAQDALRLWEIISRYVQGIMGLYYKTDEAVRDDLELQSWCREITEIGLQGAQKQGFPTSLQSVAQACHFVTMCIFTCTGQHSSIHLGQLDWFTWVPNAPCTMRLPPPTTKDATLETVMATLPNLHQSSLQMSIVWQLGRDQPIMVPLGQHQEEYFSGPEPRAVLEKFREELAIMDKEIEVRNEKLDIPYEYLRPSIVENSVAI
The series can be described thus: Rabbit Reticulocyte 15-LO Assay (h15LO). The settings on record: for IC50: 2U rabbit reticulocyte 15-LO, 174 μM linoleic acid, 15 minutes at 4° C. The format is biochemical. Put shortly:
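Linoleic acid oxidation to 13-HPODE measured at 4° C. over 15 minutes, using 174 μM substrate and 2U enzyme purified from phenylhydrazine-treated rabbits in PBS/0.2% Na cholate. Product peak areas calibrated with authentic 13-HODE; inhibition expressed versus maximal reaction.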

For series [2], the system named is Rabbits fed a 0.25% cholesterol, 3% peanut oil, 3% coconut oil diet. The series can be described thus: In vivo tests: aortic atherosclerotic lesions in rabbits fed a cholesterol diet. The settings on record: 10 mg/kg as diet admix, 12 weeks. How it is done:
The entire descending thoracic aorta was assayed for its cholesteryl ester (CE), free cholesterol phospholipid content. The lipids were extracted in chloroform:methanol (2:1) by the procedure of Folch, et al. (Folch J., Lees M., Sloane-Stanley G. H. A simple method for the isolation and purification of total lipids from animal tissue, J. Biol. Chem., 1957;226:497-509) and 300-500 μL of an internal standard, i.e., 200 mg/ml solution of 4-hydroxy-cholesterol in ethyl acetate:acetone (2:1), was added to the extracts of the thoracic aortic samples. After extraction, the organic phase was dried under nitrogen and redissolved in isooctane/tetrahydro-furan (97:3). The lipid content and composition of the thoracic aorta were measured using an HPLC method.
For histologic evaluation of the aortic arch lesions and for quantification of aortic arch cross-sectional lesion area, a 1 cm segment of the ascending aorta distal to the aortic valves was fixed in 10% neutral buffered formalin for 24 hours. The vessels were dehydrated, cleared in xylene, and infiltrated with molten paraffin (<60° C.) using a Tissue Tek VIP autoprocessor (Miles Scientific, Elkhart, Ind.). The tissue segments were embedded in paraffin and sectioned at 5 μm with a Reichert-Jung microtome (Baxter, McGraw Park, Ill.). In order to obtain a thorough representation of the histologic appearance of the aortic arch lesions, 3 ribbons of 20 sections each were cut. Each ribbon of sections was spaced approximately 100 μm apart. Three pairs of sections, i.e., 1 pair from each ribbon, were affixed to cleaned 3-aminopropyltriethoxy-silane coated glass slides and stored until stained. The general histologic character was evaluated in Verhoeff's elastica stained sections.
The gross extent of atherosclerosis within the aortic arch was measured. In addition, sections of the aortic arch, a site of hypercholesterolemia-induced lesions, stained using the Verhoeff's elastica procedure were used for quantification of lesion cross-sectional. The internal elastic lamina (IEL) was identified as a blue-black ring and images of that region were collected using a digital camera. The area within the IEL was quantified using the Image Pro Plus image analysis software. The area of the lumen of the aortic arch was also quantified in a similar fashion. Lesion area was defined as the difference between the area circumscribed by the internal elastic lamina and the lumen area.
Aortic arch lesion extent was also measured. The area distal to the 1 cm segment taken for histologic evaluation to the first intercostal ostia was removed from the animal, opened longitudinally and images of the surface of the vessel was collected using a digital camera. The lesions were identified as raised, opaque areas and their area was determined using the Image Pro Plus image analysis software. The area of the entire aortic arch was also determined. The percentage of aortic arch covered by atherosclerotic lesions was calculated.

A further series has as its system monocytes. The series can be described thus: Monocyte Recruitment Assay (chemotaxis of monocytes). It is filed as cell-based. The settings on record: Table 3; for EC50: Monocyte, read-out: Monocyte Recruitment Assay ED50. How it is done:
Monocyte Recruitment Assay
The recruitment or chemotaxis of monocytes was assayed by methods well known to those skilled in the art. In particular, the method set forth in J. Clin. Invest., 1988;82:1853-1863, which is hereby incorporated by reference, was used.

Molecules are shown by their SMILES.

For `COc1ccc(C(=O)Nc2ccc(Cl)c(Cl)c2)cc1N` [Example 4, 3-Amino-4-methoxy-N-(3,4-dichlorophenyl)-benzamide], the melting point was in the range of 179 to 182 °C. For the same compound, in series [1] (Table 1), 10 nM corresponded to half-maximal inhibition (IC50). Further, in series [2], the “Aortic Arch Cross-Sectional Lesion Area (% Δ from Control)” value is on record as −94 % Δ from Control, the “Aortic Arch Lesion Extent (% Δ from Control)” value is listed as “+20 % Δ from Control” and the “Aortic Cholesteryl Ester Content (% Δ from Control)” value is given as −7 % Δ from Control.

Regarding `COc1ccc(C(=O)Nc2ccccc2)cc1Nc1ccccc1` [Example 28, 4-Methoxy-3-phenylainino-N-phenyl-benzamide], the melting point is 194 to 195 °C. This compound returned an IC50 in series [1] (Table 2) of 39 nM. Moreover, in the series on monocytes, the “Monocyte Recruitment Assay % @ 30 μM” value turned out to be 25% @ 30 μM.

For the compound `COc1ccc(C(=O)Nc2ccccc2)cc1Nc1cc(Cl)cc(Cl)c1` [Example 35, 3-(3,5-Dichloro-phenylamino)-4-methoxy-N-phenyl-benzamide], half-maximal inhibition in series [1] (Table 2) (IC50) required 7 nM. The EC50 with monocytes turned out to be 26300 nM.

For `COc1ccc(C(=O)Nc2ccc(F)cc2)cc1Nc1cccc(C(F)(F)F)c1` [Example 40, 3-(3-Trifluoromethyl-phenylamino)-4-methoxy-N-(4-fluorophenyl)-benzamide], the melting point is 163 to 164 °C. In series [1] (Table 2), this compound registered an IC50 of 17 nM. In series [2], the “Aortic Arch Cross-Sectional Lesion Area (% Δ from Control)” value is recorded as −6 % Δ from Control, the “Aortic Arch Lesion Extent (% Δ from Control)” value is listed as “+35 % Δ from Control” and the “Aortic Cholesteryl Ester Content (% Δ from Control)” value is given as “+5 % Δ from Control”.

`COc1ccc(C(=O)Nc2ccccc2)cc1NCc1cc(Cl)cc(Cl)c1` [Example 51, 3-(3,5-Dichloro-benzylamino)-4-methoxy-N-phenyl-benzamide]: the inhibition at 10 µM in series [1] (0.25 h, Table 2, @ 10 μM, read-out: h15LO % @ 10 μM) came out at 69%. The EC50 in the series on monocytes was 20000 nM.

`O=C(Nc1ccccc1)c1ccc(O)c(Nc2cc(Cl)cc(Cl)c2)c1` [Example 56, 4-Hydroxy-3-(3,5-dichloro-phenylamino)-N-phenyl-benzamide] gave a melting point of 160 to 162 °C. The compound also returned an IC50 in series [1] (Table 2) of 18 nM. In addition, in the series with monocytes, the EC50 worked out at 2600 nM.

`COc1ccc(C(=O)Nc2ccccc2)cc1NC(=S)Nc1cc(Cl)cc(Cl)c1` [Example 60, 3-[3-(3,5-Dichlorophenyl)-thioureido]-4-methoxy-N-phenyl-benzamide] displayed a melting point of 195 to 197 °C. In series [1] (Table 2), half-maximal inhibition (IC50) required 8.6 nM. For the same compound, the EC50 in the series on monocytes came out at 17600 nM. Besides, in series [2], the “Aortic Arch Cross-Sectional Lesion Area (% Δ from Control)” value is recorded as “+84 % Δ from Control”, the “Aortic Arch Lesion Extent (% Δ from Control)” value was “+40 % Δ from Control” and the “Aortic Cholesteryl Ester Content (% Δ from Control)” value is “+59 % Δ from Control”.

In turn, `COc1ccc(C(=O)Nc2ccccc2)cc1NC(=S)Nc1ccc(Cl)cc1` [Example 65, 3-[3-(4-Chlorophenyl)-thioureido]-4-methoxy-N-phenyl-benzamide] displayed a melting point of 179 to 180 °C. This compound also gave an IC50 in series [1] (Table 2) of 42 nM. For the same compound, the EC50 in the series with monocytes was 22700 nM.

Regarding `COc1ccc(C(=O)Nc2ccccc2)cc1NC(=S)Nc1cccc([N+](=O)[O-])c1` [Example 66, 3-[3-(3-Nitrophenyl)-thioureido]-4-methoxy-N-phenyl-benzamide], the melting point was 188 to 189 °C. Besides, the IC50 in series [1] (Table 2) turned out to be 7 nM. Besides, in the series on monocytes, the “Monocyte Recruitment Assay % @ 30 μM” value turned out to be 38% @ 30 μM.

In series [1] (Table 2), `COc1ccc(C(=O)Nc2ccccc2)cc1NC(=S)NC(=O)c1ccccc1` [Example 67, 4-Methoxy-N-phenyl-3-(3-benzoyl-thioureido)-benzamide] came in with an IC50 of 10000 nM. Besides, the EC50 in the series on monocytes is 24100 nM.

The compound `COc1ccc(C(=O)Nc2ccccc2)cc1NC(=S)Nc1c(F)c(F)cc(F)c1F` [Example 68, 4-Methoxy-N-phenyl-3-[3-(2,3,5,6-tetrafluoro-phenyl)-thioureido]-benzamide] had a melting point of 170 to 174 °C. Besides, inhibition in series [1] (Table 2) was half-maximal at 42 nM (IC50). Besides, the EC50 in the series with monocytes stood at 2300 nM.

Regarding `COc1ccc(C(=O)Nc2ccccc2)cc1NC(=S)Nc1ccc(C)cc1` [Example 69, 4-Methoxy-N-phenyl-3-(-3-p-tolyl-thioureido)-benzamide], in series [1] (Table 2), the midpoint of inhibition, the IC50, lay at 32 nM. The “Monocyte Recruitment Assay % @ 30 μM” value in the series on monocytes was determined as 13% @ 30 μM.

Regarding `COc1ccc(C(=O)Nc2ccccc2)cc1NC(=S)Nc1ccc(C(=O)O)cc1` [Example 75, 4-[3-(2-Methoxy-5-phenylcarbamoyl-phenyl)-thioureido]-benzoic acid], the melting point was 201 to 202 °C. In addition, the IC50 in series [1] (Table 2) came to 104 nM. Further, in series [2], the “Aortic Arch Cross-Sectional Lesion Area (% Δ from Control)” value is −90 % Δ from Control, the “Aortic Arch Lesion Extent (% Δ from Control)” value is −49 % Δ from Control and the “Aortic Cholesteryl Ester Content (% Δ from Control)” value was −28 % Δ from Control.

`COc1ccc(C(=O)Nc2ccc(F)cc2)cc1NC(=S)Nc1cc(Cl)cc(Cl)c1` [Example 91, 3-[3-(3,5-Dichlorophenyl)-thioureido]-N-(4-fluorophenyl)-4-methoxy-benzamide] registered a melting point of 175 to 178 °C. For the same compound, the IC50 in series [1] (Table 2) was determined as 8 nM. Besides, in series [2], the “Aortic Arch Cross-Sectional Lesion Area (% Δ from Control)” value is listed as −11 % Δ from Control, the “Aortic Arch Lesion Extent (% Δ from Control)” value was −12 % Δ from Control and the “Aortic Cholesteryl Ester Content (% Δ from Control)” value is reported as “+50 % Δ from Control”.

In turn, `COc1ccc(C(=O)Nc2ccc(Cl)c(Cl)c2)cc1NS(C)(=O)=O` [Example 119, 3-Methanesulfonylamino-4-methoxy-N-(3,4-dichlorophenyl)-benzamide] yielded a melting point of 226 to 228 °C. The same compound had an IC50 in series [1] (Table 2) of 90 nM. Besides, in series [2], the “Aortic Arch Cross-Sectional Lesion Area (% Δ from Control)” value is recorded as −50 % Δ from Control, the “Aortic Arch Lesion Extent (% Δ from Control)” value is reported as “+46 % Δ from Control” and the “Aortic Cholesteryl Ester Content (% Δ from Control)” value is “+46 % Δ from Control”.
